{
  "source": "patent US20110207807A1",
  "about": "“NEW USE FOR HOMOISOFLAVONE OR A SALT THEREOF” (Catholic University Industry Academy Cooperation Foundation, priority 2008, published 2011)",
  "key": {"Hairless mice": {"system": "Hairless mice", "assay": "Ear edema transiently induced by croton oil in animal model", "type": "in vivo, mouse", "conditions": "1 μg/10 μL topical 1 h before 1.6% croton oil, 6 hours after croton oil (FIG. 10b)", "method": "Hairless mice were subdivided into a non-treated group (treated with acetone only, not with croton oil), a control group (treated with 1.6% croton oil) and a test group (treated with 1 μg/10 μL homoisoflavanone and 1.6% croton oil), and the effect on ear edema induced by croton oil was investigated.\nOne hour before treating with 1.6% croton oil, 1 μg/10 μL homoisoflavanone was applied on the front and rear parts of the ear, 5 μL each. Then, 6 hours after treating with croton oil, ear thickness was measured."}, "rat mast cells": {"system": "rat mast cells", "assay": "Antigen (DNP-IgE/DNP-HSA)-induced degranulation of rat mast cells (hexosaminidase release)", "type": "cell-based", "conditions": "at 2 μg/mL, DNP-IgE / 10 ng/mL DNP-HSA, concentration-dependent (FIG. 8c)", "method": "Further, the effect of homoisoflavanone on degranulation of rat mast cells induced by antigen was investigated. 5×10^4 rat mast cells were inoculated on a 6-well plate and cultured in MEM containing 15% FBS for 24 hours. Then, after reacting with 1 μg/mL DNP-IgE for 16 hours and then removing DNP-IgE by washing with PBS, the cells were cultured in 15% MEM for 6 hours. After pretreating with homoisoflavanone in Tyrode's solution for 30 minutes, the cells were treated with 10 ng/mL DNP-human serum albumin (HSA) to induce degranulation by transmitting the signals induced by the antigen. 30 minutes later, the supernatant was collected and the pellets were lysed with 0.5% triton X-100 (500 μL). The supernatant and the lysed pellets (70 μL) were incubated at 37° C. for 90 minutes in 0.1 M sodium citrate solution (pH 4.5) containing 8 mM p-nitrophenyl-N-acetyl-β-d-glucosaminide (70 μL). Then, after adding 0.2 M glycine (pH 10.7, 70 μL) to stop the reaction, absorbance was measured at 405 nm. Total enzymatic activity was calculated by the following equation.\nRelease amount=(Absorbance of supernatant)÷(Absorbance of supernatant+Absorbance of pellets)×100%"}, "ERK": {"system": "ERK", "assay": "UV-induced ERK phosphorylation in HaCaT cells (Western blot)", "type": "cell-based, human", "conditions": "1 μg/mL, UV (FIG. 2d)", "method": "(§1) In order to identify the intracellular factors affecting COX-2 expression that are affected by homoisoflavanone, Western blotting was carried out in the same manner as in Example 2-1 except for treating with homoisoflavanone at 1 μg/mL, irradiating UV for 45 minutes and using rabbit anti-p-cytosolic phospholipase A2 (cPLA2) antibody, rabbit anti-cPLA2 antibody, rabbit anti-ERK antibody, rabbit anti-p-ERK antibody, rabbit anti-p38 antibody or rabbit anti-p-p38 antibody and using anti-rabbit IgG-HRP conjugation antibody (Zymed) as secondary antibody. Positive control groups were treated with 1 μM SB203580 (A.G. Scientific, Inc.) as p38 inhibitor or 10 μM PD98059 (A.G. Scientific, Inc.) as MEK 1 inhibitor instead of homoisoflavanone."}, "TNF-α": {"system": "TNF-α", "assay": "UV-induced TNF-α mRNA expression in HaCaT cells (real-time PCR)", "type": "cell-based, human", "conditions": "1 μg/mL, UV 100 J/m^2, compared to control group (FIG. 3)", "method": "1×10^6 HaCaT cells were inoculated on a 100-mm culture dish and cultured in DMEM containing 10% FBS for 24 hour. Then, the cells were starved by culturing for 24 hours in DMEM containing 1% FBS. Then, after treating with homoisoflavanone at 1 μg/mL for 1 hour, the cells were washed 3 times with PBS and irradiated with UV at 100 J/m^2 to induce increase of cytokines. Immediately after the UV radiation, the cells were washed again with PBS and further cultured for 2 or 5 hours in DMEM containing 1% FBS which had been treated with homoisoflavanone at the same concentration.\nAfter extracting RNA from the cells of each test group using TRIzol (Invitrogen, USA), cDNA was prepared by carrying out PCR (PTC-225 Peltier thermal cycler, MJ Research, USA). Then, the mRNA expression of IL-6, IL-8 and TNF-α was measured through real-time PCR (Roter Gene 6000 series, Corbett Research, Australia) using the cDNA as template and using commercially available IL-6, IL-8 and TNF-α primers. The expression level of the pro-inflammatory cytokines was compared relative to the non-treated group."}, "T cells": {"system": "T cells", "assay": "Mixed lymphocyte reaction (MLR), T cell proliferation (3H-thymidine)", "type": "cell-based, mouse", "conditions": "one-way MLR, BALB/C and C57B/C splenocytes, concentration-dependent (FIG. 9)", "method": "Mixed lymphocyte reaction (MLR) was carried out in order to investigate the inhibitory effect of homoisoflavanone against T cell proliferation. When mouse immune cells of different MHC classes are cultured as mixed with each other, the T cells recognize those of different MHC class as antigens and thus proliferate. One-way MLR was performed as follows. Following excision of spleens from BALB/C and C57B/C mice, the cells were individualized and red blood cells were lysed. After irradiation of 25 Gy γ-rays to BALB/C splenocytes to inactivate the BALB/C T cells, the BALB/C and C57B/C splenocytes (5×10^5 and 2×10^5 cells each) were mixed in a U-bottom 96-well plate. After treating with homoisoflavanone, the cells were incubated for 56 hours in an incubator of 5% CO2 and 37° C. Then, after further adding ^3[H]-thymidine (0.5) to each well, the cells were further incubated for 16 hours. Thereafter, the cells of each well were collected on filter paper and then put in a vial. After adding a scintillation solution (2 mL), counts per minute (CPM) was measured using a β-counter."}, "[1]": {"system": "intracellular reactive oxygen species (ROS)", "assay": "Intracellular ROS induced by UV radiation (DCFH-DA fluorescence microscopy)", "type": "cell-based, human", "conditions": "HaCaT cells, 1 μg/mL, UV 100 J/m^2, compared to UV only (FIG. 1)", "method": "Human keratinocyte cell line HaCaT cells (acquired from Professor N. Fusenig of the German Cancer Research Center) were inoculated on a 60-mm culture dish (5×10^5 cells; 1×10^6 cells for a 100-mm culture dish) and cultured for 24 hours in Dulbecco's modified Eagle's medium (DMEM) containing 10% fetal bovine serum (FBS).\nThen, after treating with homoisoflavanone of Chemical Formula 1 (R=OCH3) at a concentration of 1 μg/mL for 1 hour, the cells were washed 3 times with phosphate buffered saline (PBS). In order to generate reactive oxygen species (ROS), the cells were irradiated with UV at 100 J/m^2 using a UV lamp (FSX 24 T12/UVB/HO, Pansol™, USA). Immediately after the UV radiation, the cells were washed again with PBS and further cultured for 4 hours in DMEM containing 1% FBS, while treating with homoisoflavanone at the same concentration. Then, after treating for 30 minutes in Hank's balanced salt solution (HBSS, BioWhittaker, Cambrex, USA) with 25 μM 2,7-dichlorofluorescein diacetate (DCFH-DA), the cells were washed 3 times with PBS.\nThereafter, the ROS induced by UV were measured using a fluorescence microscope (Carl Zeiss, USA). Test groups were subdivided as follows: non-treated group—treated with neither UV nor homoisoflavanone; test group A—treated with homoisoflavanone only; control group—treated with UV only; test group B—treated with UV and homoisoflavanone."}, "cPLA2": {"system": "cPLA2", "assay": "UV-induced cPLA2 phosphorylation in HaCaT cells (Western blot)", "type": "cell-based, human", "conditions": "1 μg/mL, UV (FIG. 2b)", "method": "as §1"}},
  "data": [
    {"smiles": "COc1ccc(CC2COc3cc(O)cc(O)c3C2=O)cc1O", "note": "(stereo not shown) [homoisoflavanone]", "values": [
      {"measurement": "decrease in ear thickness", "setting": "Hairless mice", "value": 63, "unit": "%"},
      {"measurement": "inhibition of antigen-induced degranulation (hexosaminidase release)", "setting": "rat mast cells", "value": 50, "unit": "%"},
      {"measurement": "phosphorylation of ERK", "setting": "ERK", "value": "inhibited"},
      {"measurement": "expression of TNF-α (mRNA) induced by UV", "setting": "TNF-α", "value": "decreased expression"},
      {"measurement": "concentrations at which proliferation of T cells was effectively inhibited", "setting": "T cells", "value": "≥ 0.25", "unit": "µg/mL"},
      {"measurement": "generation of intracellular ROS induced by UV", "setting": "[1]", "value": "decreased significantly"},
      {"measurement": "phosphorylation of cPLA2", "setting": "cPLA2", "value": "inhibited"}
    ]}
  ]
}
